Test results published in patent US20040028749A1, “Treating inflammation and associated complications” (priority 2000, published 2004).

Molecular target: MPO (Homo sapiens, UniProt P05164)
Experiment: Stopped-flow kinetics of NO with MPO
Assay type: biochemical
Set-up: MPO was initially purified from detergent extracts of human leukocytes; from tissue; host or cells: human leukocytes (detergent extracts)
Procedure: […] EPO was isolated from porcine whole blood obtained fresh at the slaughterhouse as described by Jorg et al. (1982) Biochim Biophys Acta 701:185-191. EPO was assayed by guaiacol oxidation (see Klebanoff et al. (1984) Methods Enzymol. 105:399-403). […] The concentration of the MPO dimer was calculated as half the indicated concentration of heme-like chromophore. Bovine LPO was obtained from Worthington Biochemistry Corporation (Lakewood, N.J.) and used without further purification.
To examine the kinetics of interaction between NO and MPO Compounds I and II, stopped-flow spectroscopy was used. The kinetics of Compound II formation and decay in the absence and presence of different NO concentrations were performed using a dual syringe stopped-flow instrument obtained from Hi-Tech Ltd (model SF-51). Measurements were carried out under anaerobic atmosphere, at 25° C. and monitored at 455 nm (an isosbestic point of Compound I and MPO ground state) following rapid mixing of equal volumes of an H202-containing buffer solution and an MPO solution that contained different NO concentrations. The time course of absorbance change was fit to either single or double exponential functions as indicated. The rate constants for the formation (kon) and decay (koff) of the MPO-Fe(III)-NO complex in the presence of plasma levels of the alternative substrate Cl^− (100 mM) were determined by monitoring absorbance change at 430 nm at 10° C. […]
Rapid kinetic studies were initially performed under Cl^− free conditions using 2 co-substrates, a fixed (low) level of H2O2 and variable levels of NO. […] The subsequent decrease in absorbance at 455 nm observed was also fit to a single exponential function with a rate constant of […] and was attributed to the decay of compound II.
(An anaerobic solution containing sodium phosphate buffer (200 mM, pH 7.0) supplemented with H2O2 (20 μM) was rapidly mixed with an equal volume of buffer containing 0.86 μM of MPO-Fe(III) and differing concentrations of NO at 25° C.) NO was readily used as a one e^− substrate by Compound I, as indicated by the rapid buildup of MPO Compound II. […]
In a parallel series of experiments, the influence of NO on the kinetics of MPO Compound II buildup, duration, and decay during steady-state catalysis in the presence of plasma levels of the competing substrate Cl^− was examined. Reactions were again performed under anaerobic conditions and the absorbance change at 455 nm monitored following rapid mixing of enzyme and various concentrations of NO (2.5, 12.5, 25 and 50 μM final) in the presence of H202 (10 μM final) and Cl^− (100 mM final). Anaerobic spectra of MPO-Fe(III) were recorded at 25° C. in septum-sealed quartz cuvettes that were equipped with a quick-fit joint for attachment to a vacuum system. […]

Chain of MPO (P05164 279-745 limits assumed): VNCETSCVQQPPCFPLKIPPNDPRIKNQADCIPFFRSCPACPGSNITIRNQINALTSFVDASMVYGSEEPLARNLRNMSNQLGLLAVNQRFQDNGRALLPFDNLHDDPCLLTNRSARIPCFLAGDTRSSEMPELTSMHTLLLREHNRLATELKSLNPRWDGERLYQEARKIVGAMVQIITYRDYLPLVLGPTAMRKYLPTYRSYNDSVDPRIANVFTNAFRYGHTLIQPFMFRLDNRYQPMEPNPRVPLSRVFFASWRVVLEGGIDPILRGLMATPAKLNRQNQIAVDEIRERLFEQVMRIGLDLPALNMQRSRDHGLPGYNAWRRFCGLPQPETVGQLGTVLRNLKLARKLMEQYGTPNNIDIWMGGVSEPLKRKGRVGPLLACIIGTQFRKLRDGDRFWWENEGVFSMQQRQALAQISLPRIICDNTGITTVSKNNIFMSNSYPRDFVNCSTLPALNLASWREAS
Chain of MPO (P05164 165-273 limits assumed): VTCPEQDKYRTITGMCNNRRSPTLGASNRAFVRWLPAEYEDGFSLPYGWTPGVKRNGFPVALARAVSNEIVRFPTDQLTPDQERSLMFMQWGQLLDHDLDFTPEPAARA

Q: Which results are given for `[N]=O` [NO, nitric oxide]?
A: enhancement of rate of MPO Compound II accumulation (10 μM H2O2, Cl^− free, 25° C.): ~20 fold; koff (100 mM Cl^−, 11° C., read-out: koff for NO binding to MPO-Fe(III)): 22.3 s⁻¹; kon (100 mM Cl^−, 11° C., read-out: kon for NO binding to MPO-Fe(III)): 150000 M⁻¹ s⁻¹; second order rate constant of MPO Compound II decay (Cl^− free, 25° C.): 8×10^3 M^−1S^−1
